{
  "source": "patent US8003636B2",
  "about": "“Certain crystalline diphenylazetidinone hydrates, pharmaceutical compositions thereof and methods for their use” (Sanofi-Aventis Deutschland GmbH, priority 2007, dated 2011)",
  "key": {"[1]": {"test": "Test of the dissolution rate (USP 27 paddle apparatus)", "type": "physicochemical", "conditions": "for release [%]: 20 mg in 1000 ml 0.1% aqueous SDS, 37° C., 75 rpm paddle, mean of three", "description": "The dissolution rate of the crystalline hydrates of the formula I was tested as follows: […]\nThe dissolution rate is measured in a standard apparatus (paddle) according to the US Pharmacopeia (USP 27) at 37° C. The stirrer speed is 75 rpm.\n20 mg of the substance to be examined are added to 1000 ml of a 0.1% strength aqueous sodium dodecylsulfate (SDS) solution. After 15, 30, 45 and 60 minutes, samples of 20 ml are taken.\nThe portion dissolved is determined photometrically at 256 nm using a comparison solution. The measurement is carried out in 10 mm cuvettes using, for example, a Perkin Elmer Lambda 25 photometer. The samples are measured directly after removal of the samples. In each case, a mean is calculated from three determinations.\nThe comparison solution is prepared as follows: 2-3 mg of the batch used are dissolved in 2 ml of dimethylformamide in a measuring flask. The volume is then made up to 100.0 ml using 0.1% strength SDS solution.\nThe amorphous compound of the formula I used in Example 2 was compared to the crystalline compound of the formula I obtained in the same Example 2."}, "[2]": {"test_system": "Cholesterol absorption", "test": "Effect on cholesterol absorption + 3H-taurocholic acid elimination via fecal elimination", "type": "in vivo, NMRI mice", "conditions": "dose which doubles fecal elimination of TCA or cholesterol vs control group, peroral, feces collected over 24 h", "description": "Effect on Cholesterol Absorption+^3H-Taurocholic Acid Elimination via Fecal Elimination in Mice, Rats or Hamsters\nNMRI mice, Wistar rats or Golden Syrian hamsters (in groups of n=4-6) are kept with a standard diet (Altromin, Lage (Lippe), Germany) in metabolic cages. The afternoon prior to the administration of the radioactive tracers (^14C-cholesterol) the feed is withdrawn, and the animals are adapted to the cage wires.\nIn addition, 24 hours prior to the peroral administration of the test meal (^14C-cholesterol in Intralipid® 20, Pharmacia-Upjohn), the animals are labelled s.c. with ^3H-TCA (taurocholic acid) (for example 1 μCi/mouse to 5 μCi/rat).\nCholesterol absorption test: 0.25 ml/mouse Intralipid® 20 (Pharmacia-Upjohn) (spiked with 0.25 μCi ^14C-cholesterol in 0.1 mg of cholesterol) is administered perorally using a stomach tube. […]\nThe feces are collected over a period of 24 h: the fecal elimination of ^14C-cholesterol and 3H-taurocholic acid (TCA) is determined after 24 hours. […]\nThe total weight is determined, the sample is made up with water to a defined volume and then homogenized, an aliquot is evaporated to dryness and incinerated in an Oximate (Model 307, Packard, for the incineration of radioactively labelled samples): the amount of radioactive ^3H—H2O und ^14C—CO2 is extrapolated to the amount of ^3H-taurocholic acid or ^14C-cholesterol eliminated (dual isotope technique). […]"}, "[3]": {"test": "Water content on storage at 23° C./60% relative atmospheric humidity", "type": "physicochemical", "conditions": "for Water content (%): previously dried to 0.8% water", "description": "The hydrate obtained in Example 2 was dried under reduced pressure at 50° C. until a water content of 0.8% had been reached. The crystalline product was stored at 23° C./60% relative atmospheric humidity."}, "[4]": {"conditions": "storage time 0.5 h at 23° C./60% relative humidity"}, "[5]": {"conditions": "storage time 2 h at 23° C./60% relative humidity"}, "[6]": {"conditions": "storage time 4 h at 23° C./60% relative humidity"}, "[7]": {"conditions": "storage time 6 h at 23° C./60% relative humidity"}, "[8]": {"conditions": "storage time 24 h at 23° C./60% relative humidity"}},
  "data": [
    {"smiles": "COc1ccc([C@@H]2[C@@H](CC[C@H](O)c3ccc(F)cc3)C(=O)N2c2ccc(CNC(=O)CCCCCCCCCCC(=O)NC[C@H](O)[C@@H](O)[C@H](O)[C@H](O)CO)cc2)cc1", "note": "[Amorphous compound of the formula II, reference compound]", "values": [
      {"measurement": "release [%]", "setting": "[1]; 15 min", "value": 30.0, "unit": "%"},
      {"measurement": "release [%]", "setting": "[1]; 30 min", "value": 41.3, "unit": "%"},
      {"measurement": "release [%]", "setting": "[1]; 45 min", "value": 44.7, "unit": "%"},
      {"measurement": "release [%]", "setting": "[1]; 60 min", "value": 46.2, "unit": "%"}
    ]},
    {"smiles": "COc1ccc([C@@H]2[C@@H](CC[C@H](O)c3ccc(F)cc3)C(=O)N2c2ccc(CNC(=O)CCCCCCCCCCC(=O)NC[C@H](O)[C@@H](O)[C@H](O)[C@H](O)CO)cc2)cc1", "note": "[Example 2]", "values": [
      {"measurement": "ED200 value (fecal elimination [mg/mouse])", "setting": "[2]", "value": 0.01, "unit": "mg/mouse"},
      {"measurement": "release [%]", "setting": "[1]; 15 min, listed as Crystalline compound of the formula I", "value": 88.0, "unit": "%"},
      {"measurement": "release [%]", "setting": "[1]; 30 min, listed as Crystalline compound of the formula I", "value": 90.0, "unit": "%"},
      {"measurement": "release [%]", "setting": "[1]; 45 min, listed as Crystalline compound of the formula I", "value": 94.6, "unit": "%"},
      {"measurement": "release [%]", "setting": "[1]; 60 min, listed as Crystalline compound of the formula I", "value": 98.7, "unit": "%"},
      {"measurement": "amount in solution relative to the amorphous active ingredient", "setting": "[1]; after 15 minutes", "value": "almost three times the amount of the amorphous active ingredient"}
    ]},
    {"smiles": "COc1ccc([C@@H]2[C@@H](CC[C@H](O)c3ccc(F)cc3)C(=O)N2c2ccc(CNC(=O)CCCCCCCCCCC(=O)NC[C@H](O)[C@@H](O)[C@H](O)[C@H](O)CO)cc2)cc1", "note": "[Example 6]", "values": [
      {"measurement": "n (hydrate water per formula I)", "setting": "[3]; [4]", "value": 0.5},
      {"measurement": "Water content (%)", "setting": "[3]; [4]", "value": 1.1, "unit": "%"},
      {"measurement": "n (hydrate water per formula I)", "setting": "[3]; [5]", "value": 1.09},
      {"measurement": "Water content (%)", "setting": "[3]; [5]", "value": 2.4, "unit": "%"},
      {"measurement": "n (hydrate water per formula I)", "setting": "[3]; [6]", "value": 1.14},
      {"measurement": "Water content (%)", "setting": "[3]; [6]", "value": 2.5, "unit": "%"},
      {"measurement": "n (hydrate water per formula I)", "setting": "[3]; [7]", "value": 1.09},
      {"measurement": "Water content (%)", "setting": "[3]; [7]", "value": 2.4, "unit": "%"},
      {"measurement": "n (hydrate water per formula I)", "setting": "[3]; [8]", "value": 1.14},
      {"measurement": "Water content (%)", "setting": "[3]; [8]", "value": 2.5, "unit": "%"}
    ]}
  ]
}
